# Measurements reported in patent US8883415B2, “Aza-benzazolium containing cyanine dyes” (Life Technologies Corporation, priority 1999, dated 2014).
# Assays:
# [1] = system: double-stranded DNA; assay: Detecting double-stranded DNA in solution (fluorescence microplate reader); assay type: binding; settings: Excitation 530 nm/Emission 560 nm
# Protocol: Samples containing 0.1 ng/mL to 1 microgram/mL double-stranded DNA are prepared in 10 mM Tris-HCl, 1 mM EDTA, pH 7.5. The selected dye of the invention is dissolved in DMSO at a concentration of 1-10 mM and then diluted into the same buffer at a concentration sufficient to achieve final optical densities of 0.1 and 0.01 at 500 nm, 530 nm, 540 nm or 560 nm. Equal volumes (100 microliters each) of DNA sample solution and dye solution at each concentration are combined and mixed gently at room temperature in a microplate well.
# Samples are allowed to equilibrate for 5-60 minutes, protected from light, and the fluorescence of the sample is measured using a fluorescence microplate reader. DNA concentration is determined by comparison of the sample fluorescence with a standard curve obtained with that dye for each dye concentration. The sensitivity limit of several dyes in this assay is shown (Table 5).
# [2] = system: Jurkat human T-cell leukemia cells; assay: Detection of apoptosis by flow cytometry; assay type: cell-based; settings: 0.1 μM dye; 10 μM camptothecin-induced apoptosis; 30 minutes on ice; 488 nm excitation
# Protocol: A 1 mM solution of Compound 27 in DMSO is prepared. Jurkat human T-cell leukemia cells are treated with 10 μM camptothecin to induce apoptosis. A sample of the cells (1×10^8 cells/mL) is incubated with enough of the Compound 27 stock solution to give a final dye concentration of 0.1 μM, and sufficient propidium iodide to give a final concentration of 1.5 μM. After incubating for 30 minutes on ice, the cell samples are analyzed on a FacsVantage flow cytometer using 488-argon laser excitation, with emission at 530/30 and 675/20. Apoptotic cells are compared to control cells that were incubated with the same final concentration of DMSO used in the staining solution.
smiles,measurement,setting,value
C[n+]1cccc2oc(/C=C3\C=CN(CCC[N+](C)(C)C)c4ccccc43)nc21 [Compound 27],"Sensitivity Limit, High dye concentration (0.1 OD)",[1],20 ng/mL
same,"Sensitivity Limit, Low dye concentration (0.01 OD)",[1],0.5 ng/mL
same,Differentiation of apoptotic and normal cells (plot of FL1 versus FL3),[2],capable of differentiating between apoptotic and normal cells
